Patent US8933111B2, “Crystalline form of (2S,4R)-5-biphenyl-4-yl-2-hydroxymethyl-2-methyl-4-[(1H-[1,2,3]triazole-4-carbonyl)-amino]-pentanoic acid 5-methyl-2-oxo-[1,3]dioxol-4-ylmethyl ester” (Theravance Biopharma R&D IP, LLC, priority 2012, dated 2015)

Experiments:
[1] = Dynamic moisture sorption (DMS) assessment; type: physicochemical
Protocol: Dynamic moisture sorption (DMS) measurements were performed using a VTI atmospheric microbalance, SGA-100 system (VTI Corp., Hialeah, Fla. 33016). A weighed sample was used and the relative humidity (RH) was set at the ambient value at the start of the analysis. The sample was subjected to an initial drying step (from 45% RH to 5% RH) followed by two cycles of adsorption (5% RH to 90% RH) and desorption (90% RH to 5% RH) experiments. The DMS analysis used a scan rate of 5% RH/step over the full humidity range of 5% (RH) to 90% RH. The DMS run was performed isothermally at 25° C.

[2] = Thermogravimetric analysis (TGA); type: physicochemical; details: heating rate of 10° C. from ambient to 220° C., nitrogen purge
Protocol: Thermogravimetric analysis (TGA) measurements were performed using a TA Instruments Model Q-50 module equipped with high resolution capability. Data were collected using TA Instruments Thermal Analyst controller and analyzed using TA Instruments Universal Analysis software. A weighed sample was placed onto a platinum pan and scanned with a heating rate of 10° C. from ambient temperature to 220° C. The balance and furnace chambers were purged with nitrogen flow during use.

hygroscopicity (DMS profile) ([1]; 5% RH to 90% RH, two adsorption/desorption cycles, 25° C.): non-hygroscopic | moisture picked up during the adsorption segment ([1]; adsorption from 5% RH to 90% RH, isothermal at 25° C.): less than 0.1 % by weight | solid form after the DMS experiment (PXRD of post-DMS sample) ([1]; after two moisture sorption-desorption cycles): no change in the form | temperature until which the TGA trace shows no weight loss [2]: about 200 °C
Structure (SMILES): Cc1oc(=O)oc1COC(=O)[C@](C)(CO)C[C@@H](Cc1ccc(-c2ccccc2)cc1)NC(=O)c1c[nH]nn1 [crystalline compound, (2S,4R)-5-biphenyl-4-yl-2-hydroxymethyl-2-methyl-4-[(1H-[1,2,3]triazole-4-carbonyl)-amino]-pentanoic acid 5-methyl-2-oxo-[1,3]dioxol-4-ylmethyl ester]
